{
  "source": "BindingDB's records for doi:10.1016/s0006-2952(02)01515-0",
  "about": "(Aventis Pharma, 2003)",
  "key": {"D(4) dopamine receptor": {"target": "D(4) dopamine receptor (Homo sapiens, UniProt P21917)", "sequence (P21917 whole entry)": "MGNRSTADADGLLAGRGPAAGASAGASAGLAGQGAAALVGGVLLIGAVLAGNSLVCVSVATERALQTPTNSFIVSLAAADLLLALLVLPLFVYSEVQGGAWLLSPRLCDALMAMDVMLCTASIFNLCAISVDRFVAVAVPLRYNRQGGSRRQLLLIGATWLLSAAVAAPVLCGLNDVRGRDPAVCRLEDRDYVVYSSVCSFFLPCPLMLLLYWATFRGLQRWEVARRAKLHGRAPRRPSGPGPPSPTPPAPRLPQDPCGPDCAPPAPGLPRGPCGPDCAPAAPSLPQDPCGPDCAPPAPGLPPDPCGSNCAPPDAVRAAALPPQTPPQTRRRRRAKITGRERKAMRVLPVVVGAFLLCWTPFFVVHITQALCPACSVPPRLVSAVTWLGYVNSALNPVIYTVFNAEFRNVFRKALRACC"}, "[1]": {"target": "5-hydroxytryptamine receptor 2C (Homo sapiens, UniProt P28335)", "sequence (P28335 whole entry)": "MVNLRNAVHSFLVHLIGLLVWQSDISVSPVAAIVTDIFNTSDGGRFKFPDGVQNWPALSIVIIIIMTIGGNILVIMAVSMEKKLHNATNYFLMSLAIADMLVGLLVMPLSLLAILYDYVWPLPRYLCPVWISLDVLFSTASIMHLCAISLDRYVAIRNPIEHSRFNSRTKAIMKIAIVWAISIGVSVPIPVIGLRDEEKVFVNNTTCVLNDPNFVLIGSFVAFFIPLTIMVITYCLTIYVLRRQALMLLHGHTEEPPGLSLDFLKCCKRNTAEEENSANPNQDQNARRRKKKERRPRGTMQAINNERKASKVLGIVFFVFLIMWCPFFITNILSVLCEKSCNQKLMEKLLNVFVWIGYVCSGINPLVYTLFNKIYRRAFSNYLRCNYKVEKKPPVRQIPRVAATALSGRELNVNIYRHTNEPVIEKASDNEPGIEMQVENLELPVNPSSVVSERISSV"}, "[2]": {"target": "Alpha-2C adrenergic receptor (Rattus norvegicus, UniProt P22086)"}, "[3]": {"target": "Muscarinic acetylcholine receptor M1 (Homo sapiens, UniProt P11229)", "sequence (P11229 whole entry)": "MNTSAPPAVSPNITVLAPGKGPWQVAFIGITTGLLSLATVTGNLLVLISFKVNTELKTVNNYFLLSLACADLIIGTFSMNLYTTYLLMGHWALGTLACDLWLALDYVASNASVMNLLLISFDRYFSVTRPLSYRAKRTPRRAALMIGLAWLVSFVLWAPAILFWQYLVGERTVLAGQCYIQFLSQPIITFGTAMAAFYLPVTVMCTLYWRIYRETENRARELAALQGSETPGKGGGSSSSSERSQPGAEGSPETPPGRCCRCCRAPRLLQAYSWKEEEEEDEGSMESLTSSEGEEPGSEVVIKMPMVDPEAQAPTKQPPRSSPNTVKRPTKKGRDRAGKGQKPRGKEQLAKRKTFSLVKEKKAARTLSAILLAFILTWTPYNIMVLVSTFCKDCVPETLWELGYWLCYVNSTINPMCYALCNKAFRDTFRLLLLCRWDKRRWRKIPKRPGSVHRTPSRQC"}, "[4]": {"target": "Muscarinic acetylcholine receptor M3 (Homo sapiens, UniProt P20309)"}, "D(3) dopamine receptor": {"target": "D(3) dopamine receptor (Homo sapiens, UniProt P35462)"}, "[5]": {"target": "5-hydroxytryptamine receptor 7 (Homo sapiens, UniProt P34969)", "sequence (P34969 whole entry)": "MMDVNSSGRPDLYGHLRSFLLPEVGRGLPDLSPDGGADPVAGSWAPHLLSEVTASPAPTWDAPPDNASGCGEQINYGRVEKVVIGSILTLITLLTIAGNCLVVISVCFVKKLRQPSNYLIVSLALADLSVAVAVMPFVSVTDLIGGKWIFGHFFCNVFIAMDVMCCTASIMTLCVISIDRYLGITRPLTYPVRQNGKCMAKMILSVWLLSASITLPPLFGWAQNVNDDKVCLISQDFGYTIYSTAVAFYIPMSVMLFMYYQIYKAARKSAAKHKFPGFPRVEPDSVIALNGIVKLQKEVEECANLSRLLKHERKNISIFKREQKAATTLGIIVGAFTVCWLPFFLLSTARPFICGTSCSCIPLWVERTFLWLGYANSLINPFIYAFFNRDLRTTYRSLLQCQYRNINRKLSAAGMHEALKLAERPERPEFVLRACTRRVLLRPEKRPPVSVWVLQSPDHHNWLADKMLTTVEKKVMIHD"}, "[6]": {"target": "5-hydroxytryptamine receptor 2A (Homo sapiens, UniProt P28223)", "sequence (P28223 whole entry)": "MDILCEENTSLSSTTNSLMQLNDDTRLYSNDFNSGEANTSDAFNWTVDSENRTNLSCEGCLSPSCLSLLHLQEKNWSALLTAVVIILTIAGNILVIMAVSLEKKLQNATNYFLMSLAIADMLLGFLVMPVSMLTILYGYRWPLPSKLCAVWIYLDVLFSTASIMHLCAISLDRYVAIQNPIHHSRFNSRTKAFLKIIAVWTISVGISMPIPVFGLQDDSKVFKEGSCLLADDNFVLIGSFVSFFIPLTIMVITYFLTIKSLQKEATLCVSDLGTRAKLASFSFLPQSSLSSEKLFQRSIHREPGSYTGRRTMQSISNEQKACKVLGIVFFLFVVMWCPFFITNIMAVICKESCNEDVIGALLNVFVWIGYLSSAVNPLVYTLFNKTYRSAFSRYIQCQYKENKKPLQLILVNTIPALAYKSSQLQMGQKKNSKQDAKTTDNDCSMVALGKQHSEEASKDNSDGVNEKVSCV"}, "Histamine H1 receptor": {"target": "Histamine H1 receptor (Cavia porcellus, UniProt P31389)"}, "[7]": {"target": "5-hydroxytryptamine receptor 3A (Homo sapiens, UniProt P46098)", "sequence (P46098 whole entry)": "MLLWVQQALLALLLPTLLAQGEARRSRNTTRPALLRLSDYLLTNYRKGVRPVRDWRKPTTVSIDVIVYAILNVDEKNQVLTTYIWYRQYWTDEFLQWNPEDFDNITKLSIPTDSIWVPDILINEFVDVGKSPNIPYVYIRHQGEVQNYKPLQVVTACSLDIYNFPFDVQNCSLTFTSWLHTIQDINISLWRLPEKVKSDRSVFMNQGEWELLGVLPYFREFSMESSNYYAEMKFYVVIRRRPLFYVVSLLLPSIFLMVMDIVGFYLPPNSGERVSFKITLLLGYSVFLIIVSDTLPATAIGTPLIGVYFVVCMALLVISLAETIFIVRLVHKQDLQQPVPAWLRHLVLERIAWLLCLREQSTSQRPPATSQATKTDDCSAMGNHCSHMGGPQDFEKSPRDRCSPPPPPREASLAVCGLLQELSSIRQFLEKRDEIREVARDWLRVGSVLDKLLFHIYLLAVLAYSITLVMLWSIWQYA"}, "[8]": {"target": "Gamma-aminobutyric acid (GABA) B receptor 1 (Rattus norvegicus, UniProt Q6MFX8)", "sequence (Q6MFX8 whole entry)": "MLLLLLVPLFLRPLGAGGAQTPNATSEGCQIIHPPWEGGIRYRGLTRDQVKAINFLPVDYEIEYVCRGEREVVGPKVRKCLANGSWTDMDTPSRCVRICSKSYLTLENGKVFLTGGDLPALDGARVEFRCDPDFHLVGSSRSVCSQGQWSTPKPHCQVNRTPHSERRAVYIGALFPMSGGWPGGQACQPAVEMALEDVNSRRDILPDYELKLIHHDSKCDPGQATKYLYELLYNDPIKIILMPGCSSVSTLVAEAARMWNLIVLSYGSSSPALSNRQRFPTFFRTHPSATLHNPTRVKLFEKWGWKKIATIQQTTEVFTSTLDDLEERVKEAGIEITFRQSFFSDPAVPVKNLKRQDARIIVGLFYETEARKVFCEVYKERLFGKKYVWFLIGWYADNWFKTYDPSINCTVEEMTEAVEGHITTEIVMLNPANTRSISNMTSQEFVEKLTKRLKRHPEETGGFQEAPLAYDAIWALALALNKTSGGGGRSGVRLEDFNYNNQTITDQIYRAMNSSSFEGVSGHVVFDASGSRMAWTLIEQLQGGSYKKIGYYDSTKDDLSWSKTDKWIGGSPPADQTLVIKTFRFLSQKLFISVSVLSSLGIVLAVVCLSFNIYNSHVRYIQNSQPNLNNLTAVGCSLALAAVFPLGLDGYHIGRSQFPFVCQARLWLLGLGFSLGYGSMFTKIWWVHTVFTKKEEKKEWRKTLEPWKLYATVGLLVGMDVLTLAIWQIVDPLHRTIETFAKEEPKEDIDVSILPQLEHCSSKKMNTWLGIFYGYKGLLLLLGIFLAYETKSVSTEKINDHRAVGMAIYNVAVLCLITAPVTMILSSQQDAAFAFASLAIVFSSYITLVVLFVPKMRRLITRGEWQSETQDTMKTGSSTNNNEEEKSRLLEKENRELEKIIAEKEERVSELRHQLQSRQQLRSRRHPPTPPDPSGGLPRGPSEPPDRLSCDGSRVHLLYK"}, "[9]": {"target": "Muscarinic acetylcholine receptor M4 (Homo sapiens, UniProt P08173)"}, "[10]": {"target": "Gamma-aminobutyric acid receptor subunit alpha-1 (Rattus norvegicus, UniProt P62813)"}, "[11]": {"target": "5-hydroxytryptamine receptor 3A (Mus musculus, UniProt P23979)"}, "[12]": {"target": "Muscarinic acetylcholine receptor M5 (Homo sapiens, UniProt P08912)"}, "Histamine H2 receptor": {"target": "Histamine H2 receptor (Cavia porcellus, UniProt P47747)", "sequence (P47747 whole entry)": "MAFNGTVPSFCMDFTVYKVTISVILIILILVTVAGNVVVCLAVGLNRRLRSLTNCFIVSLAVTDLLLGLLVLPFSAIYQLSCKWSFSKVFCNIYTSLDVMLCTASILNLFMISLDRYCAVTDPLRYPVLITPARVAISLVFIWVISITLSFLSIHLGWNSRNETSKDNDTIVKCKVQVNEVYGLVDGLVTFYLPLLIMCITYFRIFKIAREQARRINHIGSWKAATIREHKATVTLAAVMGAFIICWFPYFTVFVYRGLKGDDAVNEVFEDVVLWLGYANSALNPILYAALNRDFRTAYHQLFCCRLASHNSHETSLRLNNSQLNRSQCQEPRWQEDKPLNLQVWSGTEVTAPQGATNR"}, "D(2) dopamine receptor": {"target": "D(2) dopamine receptor (Homo sapiens, UniProt P14416)", "sequence (P14416 whole entry)": "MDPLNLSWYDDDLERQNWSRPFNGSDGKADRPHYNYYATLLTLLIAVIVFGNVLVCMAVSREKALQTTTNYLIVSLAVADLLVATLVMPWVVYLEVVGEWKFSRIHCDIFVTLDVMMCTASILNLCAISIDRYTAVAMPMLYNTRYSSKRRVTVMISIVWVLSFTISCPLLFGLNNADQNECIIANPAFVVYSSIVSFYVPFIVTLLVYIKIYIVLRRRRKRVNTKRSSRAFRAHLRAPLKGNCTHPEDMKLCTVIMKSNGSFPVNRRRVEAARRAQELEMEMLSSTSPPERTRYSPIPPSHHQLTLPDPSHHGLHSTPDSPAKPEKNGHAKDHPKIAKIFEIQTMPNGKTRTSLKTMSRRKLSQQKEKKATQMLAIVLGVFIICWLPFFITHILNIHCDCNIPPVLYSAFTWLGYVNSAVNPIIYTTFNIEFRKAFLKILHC"}, "[13]": {"target": "Muscarinic acetylcholine receptor M2 (Homo sapiens, UniProt P08172)"}, "D(1A) dopamine receptor": {"target": "D(1A) dopamine receptor (Homo sapiens, UniProt P21728)"}, "[14]": {"target": "Alpha-1A adrenergic receptor (Rattus norvegicus, UniProt P43140)", "sequence (P43140 whole entry)": "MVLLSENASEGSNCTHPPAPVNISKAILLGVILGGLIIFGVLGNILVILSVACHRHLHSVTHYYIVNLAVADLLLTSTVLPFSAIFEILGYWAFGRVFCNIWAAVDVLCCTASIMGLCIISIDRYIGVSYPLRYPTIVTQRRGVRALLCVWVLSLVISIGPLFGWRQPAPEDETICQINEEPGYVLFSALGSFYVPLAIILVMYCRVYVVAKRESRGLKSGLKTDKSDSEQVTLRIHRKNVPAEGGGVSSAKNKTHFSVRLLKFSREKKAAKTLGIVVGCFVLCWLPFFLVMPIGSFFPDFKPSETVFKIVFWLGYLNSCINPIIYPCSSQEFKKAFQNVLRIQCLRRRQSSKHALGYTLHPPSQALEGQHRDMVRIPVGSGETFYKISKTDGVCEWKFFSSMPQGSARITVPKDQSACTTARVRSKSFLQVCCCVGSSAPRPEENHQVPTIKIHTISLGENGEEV"}, "Hrh3 protein": {"target": "Hrh3 protein (Rattus norvegicus, UniProt Q5PPG3)"}},
  "note": "pKi: −log10 of the molar value.",
  "data": [
    {"smiles": "CC(CN(C)C)CN1c2ccccc2Sc2ccc(C#N)cc21", "note": "(stereo unspecified) [CAS_62865]", "values": [
      {"measurement": "pKi", "setting": "D(4) dopamine receptor", "result": 8.28},
      {"measurement": "pKi", "setting": "[1]", "result": 7.92},
      {"measurement": "pKi", "setting": "[2]", "result": 5.88},
      {"measurement": "pKi", "setting": "[3]", "result": 7.89},
      {"measurement": "pKi", "setting": "[4]", "result": 7.49},
      {"measurement": "pKi", "setting": "D(3) dopamine receptor", "result": 8.60},
      {"measurement": "pKi", "setting": "[5]", "result": 7.66},
      {"measurement": "pKi", "setting": "[6]", "result": 8.82},
      {"measurement": "pKi", "setting": "Histamine H1 receptor", "result": 8.03},
      {"measurement": "pKi", "setting": "[7]", "result": 5.53},
      {"measurement": "pKi", "setting": "[8]", "result": "< 5.00"},
      {"measurement": "pKi", "setting": "[9]", "result": 7.92},
      {"measurement": "pKi", "setting": "[10]", "result": "< 5.00"},
      {"measurement": "pKi", "setting": "[11]", "result": 7.12},
      {"measurement": "pKi", "setting": "[12]", "result": 7.46},
      {"measurement": "pKi", "setting": "Histamine H2 receptor", "result": 6.45},
      {"measurement": "pKi", "setting": "D(2) dopamine receptor", "result": 8.24},
      {"measurement": "pKi", "setting": "[13]", "result": 7.38},
      {"measurement": "pKi", "setting": "D(1A) dopamine receptor", "result": 8.42},
      {"measurement": "pKi", "setting": "[14]", "result": 8.64},
      {"measurement": "pKi", "setting": "Hrh3 protein", "result": "< 5.00"}
    ]}
  ]
}
